Experiment [1] deals with T1, CREB-binding protein (Homo sapiens, UniProt Q92793). Kind of experiment: Binding affinity to histidine tagged KIX domain of CREB-binding protein by fluorescence polarization assay. (Polarisation of emitted light reports the rotation of a fluorescent probe.)
Target sequence in this assay (Q92793 whole entry, the tested form may be a part): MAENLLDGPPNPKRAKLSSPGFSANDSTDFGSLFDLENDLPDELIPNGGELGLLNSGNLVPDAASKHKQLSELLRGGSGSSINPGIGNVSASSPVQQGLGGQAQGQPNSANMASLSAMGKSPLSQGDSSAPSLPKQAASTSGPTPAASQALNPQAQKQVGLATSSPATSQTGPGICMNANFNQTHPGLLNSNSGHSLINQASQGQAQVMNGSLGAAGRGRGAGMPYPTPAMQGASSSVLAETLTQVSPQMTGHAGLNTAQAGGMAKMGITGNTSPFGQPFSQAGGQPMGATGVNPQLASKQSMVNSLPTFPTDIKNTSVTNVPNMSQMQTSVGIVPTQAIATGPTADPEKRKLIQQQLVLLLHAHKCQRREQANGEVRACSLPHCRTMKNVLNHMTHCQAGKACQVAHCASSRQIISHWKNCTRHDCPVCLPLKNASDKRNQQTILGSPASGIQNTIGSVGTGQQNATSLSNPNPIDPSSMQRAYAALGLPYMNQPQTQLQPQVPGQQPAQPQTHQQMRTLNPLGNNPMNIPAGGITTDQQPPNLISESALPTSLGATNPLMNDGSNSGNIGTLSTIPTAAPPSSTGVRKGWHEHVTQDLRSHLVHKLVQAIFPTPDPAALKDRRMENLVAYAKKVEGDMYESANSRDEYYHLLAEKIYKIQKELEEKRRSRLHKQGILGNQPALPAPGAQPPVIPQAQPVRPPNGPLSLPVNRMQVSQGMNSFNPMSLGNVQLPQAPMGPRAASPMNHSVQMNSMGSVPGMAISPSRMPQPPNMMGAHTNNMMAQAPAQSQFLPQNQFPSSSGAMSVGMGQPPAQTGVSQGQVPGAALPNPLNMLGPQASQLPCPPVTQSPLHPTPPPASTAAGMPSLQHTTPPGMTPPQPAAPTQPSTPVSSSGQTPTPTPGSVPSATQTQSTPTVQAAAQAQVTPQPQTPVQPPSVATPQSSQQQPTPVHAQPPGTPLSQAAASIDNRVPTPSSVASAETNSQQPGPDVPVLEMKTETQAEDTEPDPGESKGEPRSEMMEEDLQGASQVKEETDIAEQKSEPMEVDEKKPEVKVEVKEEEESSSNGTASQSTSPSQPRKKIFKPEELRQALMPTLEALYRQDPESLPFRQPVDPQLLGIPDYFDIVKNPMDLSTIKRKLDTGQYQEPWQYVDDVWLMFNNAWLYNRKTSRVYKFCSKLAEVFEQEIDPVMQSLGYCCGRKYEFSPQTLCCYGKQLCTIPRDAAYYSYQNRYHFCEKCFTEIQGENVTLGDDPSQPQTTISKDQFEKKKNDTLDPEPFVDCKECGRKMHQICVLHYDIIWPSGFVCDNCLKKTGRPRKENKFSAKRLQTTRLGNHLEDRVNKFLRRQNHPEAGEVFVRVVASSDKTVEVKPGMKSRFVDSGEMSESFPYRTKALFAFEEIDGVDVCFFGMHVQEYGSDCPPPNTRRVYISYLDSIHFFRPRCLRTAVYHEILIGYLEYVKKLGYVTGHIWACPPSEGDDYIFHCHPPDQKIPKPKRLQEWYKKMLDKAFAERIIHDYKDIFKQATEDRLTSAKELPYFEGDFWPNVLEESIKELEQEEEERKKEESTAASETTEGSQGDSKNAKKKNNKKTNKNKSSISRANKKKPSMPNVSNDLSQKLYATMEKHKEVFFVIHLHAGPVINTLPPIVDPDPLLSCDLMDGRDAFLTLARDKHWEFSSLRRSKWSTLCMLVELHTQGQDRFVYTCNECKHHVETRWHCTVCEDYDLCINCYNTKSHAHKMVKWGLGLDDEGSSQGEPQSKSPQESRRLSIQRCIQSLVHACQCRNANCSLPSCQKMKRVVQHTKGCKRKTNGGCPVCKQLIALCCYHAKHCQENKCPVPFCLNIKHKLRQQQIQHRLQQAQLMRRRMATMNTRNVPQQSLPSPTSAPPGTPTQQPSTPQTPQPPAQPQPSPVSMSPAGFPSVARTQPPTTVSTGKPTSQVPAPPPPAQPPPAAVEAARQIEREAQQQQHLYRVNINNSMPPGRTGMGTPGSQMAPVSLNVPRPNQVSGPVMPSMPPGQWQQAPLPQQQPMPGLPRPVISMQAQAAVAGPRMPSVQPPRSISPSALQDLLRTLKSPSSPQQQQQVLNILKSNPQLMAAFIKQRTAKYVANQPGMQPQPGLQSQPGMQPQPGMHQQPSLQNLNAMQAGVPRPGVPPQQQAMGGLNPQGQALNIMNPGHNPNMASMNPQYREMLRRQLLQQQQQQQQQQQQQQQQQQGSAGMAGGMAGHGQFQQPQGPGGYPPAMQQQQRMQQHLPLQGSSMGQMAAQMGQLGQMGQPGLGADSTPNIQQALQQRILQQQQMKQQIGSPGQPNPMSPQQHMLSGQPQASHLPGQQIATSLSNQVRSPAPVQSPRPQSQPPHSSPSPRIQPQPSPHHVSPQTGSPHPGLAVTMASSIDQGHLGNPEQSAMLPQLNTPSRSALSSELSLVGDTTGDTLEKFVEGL
The target in experiment [2] is T1, CREB-binding protein. Kind of experiment: Binding affinity to histidine tagged KIX domain of CREB-binding protein expressed in Escherichia coli by affinity purification assay.
Target sequence in this assay (Q92793 2-2442 limits assumed): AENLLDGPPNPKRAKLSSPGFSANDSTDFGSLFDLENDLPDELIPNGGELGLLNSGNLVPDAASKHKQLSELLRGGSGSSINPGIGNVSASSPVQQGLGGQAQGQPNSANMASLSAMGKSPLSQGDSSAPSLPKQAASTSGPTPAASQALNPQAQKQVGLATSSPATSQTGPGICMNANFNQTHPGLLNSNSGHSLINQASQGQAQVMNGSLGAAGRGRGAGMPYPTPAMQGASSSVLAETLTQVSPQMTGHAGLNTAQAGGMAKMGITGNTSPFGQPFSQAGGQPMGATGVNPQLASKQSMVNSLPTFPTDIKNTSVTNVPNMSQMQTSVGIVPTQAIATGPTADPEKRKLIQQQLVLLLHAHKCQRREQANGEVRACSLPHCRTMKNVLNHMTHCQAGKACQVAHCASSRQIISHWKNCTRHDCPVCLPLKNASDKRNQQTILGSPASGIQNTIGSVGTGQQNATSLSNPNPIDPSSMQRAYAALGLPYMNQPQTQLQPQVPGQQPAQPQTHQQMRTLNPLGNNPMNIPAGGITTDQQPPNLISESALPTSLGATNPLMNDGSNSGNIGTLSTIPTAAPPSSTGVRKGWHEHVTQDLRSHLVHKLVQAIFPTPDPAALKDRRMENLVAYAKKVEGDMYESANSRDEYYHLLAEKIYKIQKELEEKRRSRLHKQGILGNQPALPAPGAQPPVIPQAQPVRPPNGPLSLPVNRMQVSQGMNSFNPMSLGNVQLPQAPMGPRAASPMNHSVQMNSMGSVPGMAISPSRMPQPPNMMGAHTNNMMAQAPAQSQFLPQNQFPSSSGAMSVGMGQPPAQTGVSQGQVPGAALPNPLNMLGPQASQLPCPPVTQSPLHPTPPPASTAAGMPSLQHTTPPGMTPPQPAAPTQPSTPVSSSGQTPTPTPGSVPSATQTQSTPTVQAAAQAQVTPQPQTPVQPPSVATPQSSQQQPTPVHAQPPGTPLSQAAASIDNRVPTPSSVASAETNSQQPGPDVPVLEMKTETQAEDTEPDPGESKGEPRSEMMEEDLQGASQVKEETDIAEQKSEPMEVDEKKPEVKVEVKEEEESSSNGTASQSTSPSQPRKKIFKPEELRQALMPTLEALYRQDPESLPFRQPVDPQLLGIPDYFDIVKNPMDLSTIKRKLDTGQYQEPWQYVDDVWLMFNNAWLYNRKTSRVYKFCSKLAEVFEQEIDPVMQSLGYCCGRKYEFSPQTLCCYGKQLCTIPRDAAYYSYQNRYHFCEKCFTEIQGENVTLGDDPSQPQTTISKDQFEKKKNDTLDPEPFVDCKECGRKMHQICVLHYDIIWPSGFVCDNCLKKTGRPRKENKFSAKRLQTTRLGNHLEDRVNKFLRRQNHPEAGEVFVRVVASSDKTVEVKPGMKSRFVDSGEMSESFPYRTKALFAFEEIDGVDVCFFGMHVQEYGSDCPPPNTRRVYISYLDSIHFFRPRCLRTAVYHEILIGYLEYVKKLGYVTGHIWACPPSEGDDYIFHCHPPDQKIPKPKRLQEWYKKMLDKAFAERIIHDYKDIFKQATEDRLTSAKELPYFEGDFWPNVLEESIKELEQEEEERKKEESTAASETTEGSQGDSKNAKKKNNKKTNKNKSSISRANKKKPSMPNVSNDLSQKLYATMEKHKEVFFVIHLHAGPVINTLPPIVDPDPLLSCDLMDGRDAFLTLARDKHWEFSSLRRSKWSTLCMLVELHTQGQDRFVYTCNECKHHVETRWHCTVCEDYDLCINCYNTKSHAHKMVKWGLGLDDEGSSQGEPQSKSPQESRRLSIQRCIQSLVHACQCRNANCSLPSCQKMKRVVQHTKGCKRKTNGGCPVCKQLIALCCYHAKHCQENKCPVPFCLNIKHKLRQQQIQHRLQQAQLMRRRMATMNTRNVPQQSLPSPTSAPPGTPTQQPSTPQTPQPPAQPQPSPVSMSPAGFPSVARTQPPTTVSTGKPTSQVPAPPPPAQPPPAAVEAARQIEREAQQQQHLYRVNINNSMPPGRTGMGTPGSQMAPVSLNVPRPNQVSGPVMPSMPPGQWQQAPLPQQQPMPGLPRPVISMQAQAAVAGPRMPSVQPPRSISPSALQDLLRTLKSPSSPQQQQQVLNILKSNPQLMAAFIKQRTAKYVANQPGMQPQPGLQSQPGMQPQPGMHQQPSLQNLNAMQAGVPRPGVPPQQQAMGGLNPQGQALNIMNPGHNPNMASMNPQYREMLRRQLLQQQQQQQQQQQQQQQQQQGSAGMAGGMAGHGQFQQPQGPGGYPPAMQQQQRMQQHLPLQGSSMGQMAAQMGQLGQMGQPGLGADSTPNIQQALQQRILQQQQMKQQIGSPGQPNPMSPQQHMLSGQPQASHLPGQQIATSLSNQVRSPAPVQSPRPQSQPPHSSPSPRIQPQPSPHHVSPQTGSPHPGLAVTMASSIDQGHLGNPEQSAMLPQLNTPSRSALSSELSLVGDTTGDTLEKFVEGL

Each structure is given as a SMILES string. Activity calls are given as the source filed them. The calls are words filed in the database; no cut-off is given here. Where a SMILES comes first, the peptide text is derived from it. [ ]: non-standard residue; d: D form. Gly(N-piperonyl) = O=C(O)CNCc1ccc2c(c1)OCO2; Gly(N-propargyl) = C#CCNCC(=O)O; NFurfurylGly = O=C(O)CNCc1ccco1; NAllylGly = C=CCNCC(=O)O; Nleu = CC(C)CNCC(=O)O; Nlys = NCCCCNCC(=O)O

In general, Kd refers to the free concentration of one partner at which half of the binding sites on the other are occupied at equilibrium, for simple one-to-one binding. A lower Kd goes with a tighter complex.

In turn, `C=CCN(CC(=O)N(CC(N)=O)CC(C)C)C(=O)CN(Cc1ccco1)C(=O)CN(Cc1ccco1)C(=O)CN(Cc1ccco1)C(=O)CN(CC(C)C)C(=O)CNCc1cn(CCCCN(CC(N)=O)C(=O)CN(Cc2ccc3c(c2)OCO3)C(=O)CN(CCCCN)C(=O)CN(Cc2ccc3c(c2)OCO3)C(=O)CN(CC(C)C)C(=O)CN(CCCCN)C(=O)CNCc2ccc3c(c2)OCO3)nn1` returned a Kd in experiment [1] of 8.3 µM. Take `C#CCNCC(=O)N(CC(=O)N(CC(=O)N(CC(=O)N(CC(=O)N(CC=C)CC(=O)N(CC(N)=O)CC(C)C)Cc1ccco1)Cc1ccco1)Cc1ccco1)CC(C)C` (H-[Gly(N-propargyl)][Nleu][NFurfurylGly][NFurfurylGly][NFurfurylGly][NAllylGly][Nleu]-NH2): the Kd in experiment [1] amounted to 4.6 µM. In addition, in experiment [2], the result was Active. In experiment [1], `CC(C)CN(CC(=O)N(CC(=O)N(CCCCN)CC(=O)N(CC(=O)N(CCCCn1cc(CNCC(=O)N(CC(=O)N(CCO)CC(=O)N(CC(=O)N(CC(=O)N(CCCCN)CC(=O)N(CC(N)=O)Cc2ccco2)Cc2ccco2)Cc2ccc3c(c2)OCO3)Cc2ccco2)nn1)CC(N)=O)Cc1ccc2c(c1)OCO2)Cc1ccc2c(c1)OCO2)C(=O)CN(CCCCN)C(=O)CNCc1ccc2c(c1)OCO2` came in with a Kd of 72.8 µM. `CC(C)CN(CC(=O)N(CCCCN)CC(=O)N(CC(N)=O)Cc1ccc2c(c1)OCO2)C(=O)CN(Cc1ccc2c(c1)OCO2)C(=O)CN(CCCCN)C(=O)CNCc1ccc2c(c1)OCO2` (H-[Gly(N-piperonyl)][Nlys][Gly(N-piperonyl)][Nleu][Nlys][Gly(N-piperonyl)]-NH2) yielded a Kd in experiment [1] of 195 µM. Moreover, the result in experiment [2] was inactive.

The values above are taken from ChEMBL document CHEMBL1153601, “Rapid identification of improved protein ligands using peptoid microarrays” (Bioorg Med Chem Lett, 2009).
